# Laboratory results published in article PMC4192545, “Suramin Inhibits Hsp104 ATPase and Disaggregase Activity” (PLoS ONE, 2014).
# “And” between values parts separate entries of the source, which are not always exact repeats. Equal values may be shown once.
# Assays:
# Hsp104 = target: T1, Hsp104 (Saccharomyces cerevisiae, UniProt P31539); test: Luciferase disaggregation/reactivation assay, Hsp104 with ATP:ATPγS; type: biochemical, yeast
# T1 construct: made in house; host or cells: E. coli BL21-DE3 RIL
# T1 sequence (P31539 whole entry): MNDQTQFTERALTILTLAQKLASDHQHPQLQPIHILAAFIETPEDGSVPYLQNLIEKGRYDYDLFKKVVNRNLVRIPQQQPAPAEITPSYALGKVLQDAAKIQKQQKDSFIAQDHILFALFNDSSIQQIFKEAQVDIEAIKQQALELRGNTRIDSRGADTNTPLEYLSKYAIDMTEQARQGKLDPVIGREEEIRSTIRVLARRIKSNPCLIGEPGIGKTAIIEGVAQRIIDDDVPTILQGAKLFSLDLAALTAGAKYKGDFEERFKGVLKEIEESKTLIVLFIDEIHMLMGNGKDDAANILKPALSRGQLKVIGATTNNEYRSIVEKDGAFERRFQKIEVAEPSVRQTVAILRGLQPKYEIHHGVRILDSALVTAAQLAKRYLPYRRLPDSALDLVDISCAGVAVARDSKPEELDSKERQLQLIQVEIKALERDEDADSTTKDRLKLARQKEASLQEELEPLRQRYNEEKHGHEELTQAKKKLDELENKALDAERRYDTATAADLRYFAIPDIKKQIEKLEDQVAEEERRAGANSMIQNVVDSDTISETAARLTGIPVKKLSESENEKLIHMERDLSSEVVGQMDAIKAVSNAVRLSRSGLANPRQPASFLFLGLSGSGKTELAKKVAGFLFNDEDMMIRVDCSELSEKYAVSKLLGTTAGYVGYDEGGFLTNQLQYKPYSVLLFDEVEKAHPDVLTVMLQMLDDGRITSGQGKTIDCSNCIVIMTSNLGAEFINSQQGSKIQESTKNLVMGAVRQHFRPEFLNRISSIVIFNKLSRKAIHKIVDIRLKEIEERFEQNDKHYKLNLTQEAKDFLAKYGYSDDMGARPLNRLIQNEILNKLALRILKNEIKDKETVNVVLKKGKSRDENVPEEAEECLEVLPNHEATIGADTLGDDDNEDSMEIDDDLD
# Description: Luciferase reactivation was performed as described, [37]. To assemble aggregates, firefly luciferase (50 µM) in luciferase refolding buffer (LRB, 25 mM HEPES-KOH, 7.4, 150 mM KAOc, 10 mM MgAOc, 10 mM DTT) with 6 M urea was incubated at 30°C for 20 min. Luciferase was then rapidly diluted 100-fold into LRB, divided into 100 µL aliquots, snap frozen in liquid N2, and stored at −80°C. For reactivation assays, aggregated luciferase (50 nM) was incubated with Hsp104 (1 µM hexamer), plus 2.6 mM ATPγS, 2.6 mM ATP and an ATP regeneration system (1 mM creatine phosphate, 0.25 µM creatine kinase (Roche Applied Science)) for 90 minutes at 25°C. Luciferase assay system was purchased from Promega. Luciferase activity was assessed by luminescence measured on a Safire^2 microplate reader (Tecan, Männedorf, Switzerland). The half maximal inhibitory concentration (IC50) was calculating by fitting luciferase-refolding data at different Suramin concentrations with Prism (GraphPad Software, Inc., La Jolla, CA).
# Hsp104^N728A = target: T2, Hsp104^N728A (Saccharomyces cerevisiae, UniProt P31539, N728A); test: ATPase assay, Hsp104^N728A; type: biochemical, yeast; conditions: read-out: Hsp104^N728A ATPase activity relative to uninhibited protein
# T2 construct: made in house; host or cells: E. coli BL21-DE3 RIL
# T2 sequence (P31539 whole entry N728A): as the sequence (P31539 whole entry) above, with N728A counted along it
# Description: Wild-type or mutant Hsp104 (0.25 µM monomer) in ATPase buffer (20 mM HEPES-KOH pH 7.4, 20 mM NaCl and 10 mM MgCl2) was incubated for 60 or 10 min at 25°C in the presence of ATP (1 mM) as noted. ATPase activity was assessed by the release of inorganic phosphate determined by using a malachite green phosphate detection kit (Innova).
# Figure 7 Hsp104 variants respond differently to Suramin than Hsp104^WT. (A) Hsp104 variants (0.25 µM monomer) were incubated for 10 min with ATP (1 mM) and varying concentrations of Suramin. The amount of Pi produced was measured by absorbance at 635 nm. Absorbance values were normalized to the absorbance produced by each Hsp104 variant in the absence of inhibitor. Values represent mean ±S.D. (n = 6). (B) Urea-denatured firefly luciferase aggregates were incubated for 90 min at 25°C with Hsp104 variants (1 µM hexamer) plus 1∶1 mixtures of ATP and ATPγS (or ATP alone) and varying concentrations of Suramin. Luciferase reactivation was then determined and normalized to untreated disaggregase activity for each variant in the presence of ATPγS: ATP (or ATP alone). 1∶1 mixtures of ATP and ATPγS were used for Hsp104^WT and Hsp104^T317A, while ATP alone was used for Hsp104^A503V and Hsp104^N728A. Values represent mean ±S.D. (n = 6–12).
# [1] = target: T3, Quantilum recombinant luciferase (Photinus pyralis, UniProt P08659); test: Luciferase activity determination (native luciferase control); type: biochemical; conditions: Suramin 100 µM, luciferase 50 nM; data not shown
# T3 construct: purchased Promega (Madison, WI)
# T3 sequence (P08659 whole entry): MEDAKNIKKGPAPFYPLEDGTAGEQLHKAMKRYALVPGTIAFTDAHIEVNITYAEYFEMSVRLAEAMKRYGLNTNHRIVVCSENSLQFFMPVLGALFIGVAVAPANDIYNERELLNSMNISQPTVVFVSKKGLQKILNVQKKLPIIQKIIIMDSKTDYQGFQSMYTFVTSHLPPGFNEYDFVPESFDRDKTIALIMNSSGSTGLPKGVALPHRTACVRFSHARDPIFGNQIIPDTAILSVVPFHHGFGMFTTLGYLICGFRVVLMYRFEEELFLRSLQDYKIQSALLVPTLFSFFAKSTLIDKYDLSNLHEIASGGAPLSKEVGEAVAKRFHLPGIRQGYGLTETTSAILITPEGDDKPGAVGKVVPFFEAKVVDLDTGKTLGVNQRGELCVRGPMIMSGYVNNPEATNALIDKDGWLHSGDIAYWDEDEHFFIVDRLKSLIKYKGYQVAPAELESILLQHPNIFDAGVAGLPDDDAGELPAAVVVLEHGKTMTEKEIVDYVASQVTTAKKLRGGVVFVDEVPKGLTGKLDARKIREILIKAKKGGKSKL
# Description: Quantilum recombinant luciferase (native) was diluted to 5000, 500, 50, 5 and 0.5 nM in the presence or absence of Suramin. Dilutions were mixed with luciferase assay system (Promega). Luciferase activity was assessed by luminescence measured on a Safire^2 microplate reader.
smiles,measurement,setting,value
Cc1ccc(C(=O)Nc2ccc(S(=O)(=O)O)c3cc(S(=O)(=O)O)cc(S(=O)(=O)O)c23)cc1NC(=O)c1cccc(NC(=O)Nc2cccc(C(=O)Nc3cc(C(=O)Nc4ccc(S(=O)(=O)O)c5cc(S(=O)(=O)O)cc(S(=O)(=O)O)c45)ccc3C)c2)c1 [Suramin],Normalized Luciferase Refolding Activity,"Hsp104; Figure 3D, Hsp104 alone (104), ATP:ATPγS 1:1, Suramin 25 µM",0.14
same,Normalized Luciferase Refolding Activity,"Hsp104; Figure 3D, Hsp104 alone (104), ATP:ATPγS 1:1, Suramin 100 µM",0.00
same,Hsp104^WT refolding activity,Hsp104; Suramin 1 µM,100%
same,Normalized Luciferase Refolding Activity,"Hsp104; Suramin 1 µM, 90 min 25°C, ATP:ATPγS 1:1, Figure 3B",0.99
same,Normalized Luciferase Refolding Activity,"Hsp104; Suramin 5 µM, 90 min 25°C, ATP:ATPγS 1:1, Figure 3B",0.63
same,Normalized Luciferase Refolding Activity,"Hsp104; Suramin 10 µM, 90 min 25°C, ATP:ATPγS 1:1, Figure 3B",0.50
same,Normalized Luciferase Refolding Activity,"Hsp104; Suramin 25 µM, 90 min 25°C, ATP:ATPγS 1:1, Figure 3B",0.14
same,Hsp104 refolding activity,Hsp104; Suramin 50 µM,practically inactive
same,Normalized Luciferase Refolding Activity,"Hsp104; Suramin 50 µM, 90 min 25°C, ATP:ATPγS 1:1, Figure 3B",0.03
same,Effect on Hsp104 refolding of denatured luciferase,Hsp104; Suramin 100 µM,completely ablated the ability of Hsp104 to refold denatured luciferase
same,Normalized Luciferase Refolding Activity,"Hsp104; Suramin 100 µM, 90 min 25°C, ATP:ATPγS 1:1, Figure 3B",0.00
same,IC50,"Hsp104; fit of luciferase-refolding data, ATP:ATPγS 1:1, read-out: IC50, Hsp104^WT luciferase refolding",~10.1 µM and 10.1 µM
same,activity at 100 µM,Hsp104^N728A,~75%
same,Effect on luciferase activity itself,[1],did not inhibit luciferase activity
